In PMC9986241 (Signal Transduction and Targeted Therapy, 2023):
Where “and” joins values, the source holds several entries; their conditions need not be identical. Equal values may be shown once. Each block holds one compound with its values, some of them ahead of it.

How the values were obtained:
BRAF WT (381-end) = biological target: T1, BRAF WT (381-end) (Homo sapiens, UniProt P15056); experiment: In vitro kinase assay (western blotting); type: biochemical; details: 12.5 to 50 nM
T1 construct: purchased Signal Chem B08-11BG
Description: (§1) After incubated with 100–400 μM ATP in kinase assay buffer for 30 min, the phosphorylation of the substrate/total substrate protein was detected by western blotting. For ADP-glo kinase assay, unconsumed ATP was depleted with the addition of ADP-Glo™. Followed by kinase detection reagent to convert ADP to ATP, consumption of ATP was detected to evaluate the kinase activity. For more details, refer to the manufacturer’s instructions of ADP-Glo™ Kinase Assay.
(§2) Figure S2. […] Enzyme kinetics parameters including Vmax and Km were obtained using the Michaelis double-reciprocal curve equation.

BRAF V600E (416-end) = biological target: T2, BRAF V600E (416-end) (Homo sapiens, UniProt P15056, V600E); experiment: In vitro kinase assay (western blotting); type: biochemical; details: 12.5 to 50 nM
T2 construct: purchased Signal Chem B08-12G
Description: as §1, §2

MEK1/2 = experiment: Erianin-conjugated Sepharose 4B bead pull-down assay; type: binding, human; details: in vitro and ex vivo (A375 cell lysate)
Description: (§3) 293 T cells were transfected with plasmids of pcDNA3.1-3×Flag-C-MAP2K1/MAP2K1 (K97A, M146A), MAP2K2/MAP2K1 (K101A, M150A), or CRAF/CRAF (K375A). […]
Cell lysate (500 μg) or recombinant proteins (200 ng) were incubated with erianin-CNBr activated sepharose 4B overnight at 4 °C, and the protein-beads complex was washed four times by the use of rotational incubator to remove non-specific binding. Western blotting was developed to check the pull-down bands.

[1] = system: colorectal cancer PDX harboring KRAS mutation; experiment: Patient-derived xenograft (PDX); set-up: species or system NOD-SCID mice; details: mouse, in vivo
Excerpt: Figure S7. […] Tumor volume of (c). e Tumor weight of (c). f, h Changes of body weight after drug administration in melanoma and CRC PDX model. g, i HE staining of liver and spleen in melanoma PDX model. Scale bars: 200 μm.

CRAF (306-end) = biological target: T3, CRAF (306-end) (Homo sapiens, UniProt P04049); experiment: SPR; type: binding; details: CM5 chip, Biacore T200, read-out: equilibrium dissociation constant (KD)
T3 construct: purchased
T3 sequence (P04049 306-648 limits assumed): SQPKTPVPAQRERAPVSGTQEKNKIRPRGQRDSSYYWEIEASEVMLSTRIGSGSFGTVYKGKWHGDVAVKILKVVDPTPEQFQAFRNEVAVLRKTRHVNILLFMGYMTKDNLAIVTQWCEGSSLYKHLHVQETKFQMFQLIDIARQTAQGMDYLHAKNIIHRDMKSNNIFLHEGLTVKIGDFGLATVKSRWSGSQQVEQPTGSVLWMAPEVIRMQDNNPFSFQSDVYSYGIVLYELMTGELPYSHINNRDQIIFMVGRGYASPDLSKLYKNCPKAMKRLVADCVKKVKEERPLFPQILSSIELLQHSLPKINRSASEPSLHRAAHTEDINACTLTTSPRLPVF
Description: as §3
(§4) After incubation, a series concentration of erianin (RAF inhibitor LY3009120 and MEK inhibitor cobimetinib were simultaneously added as positive control) flowed through the protein-CM5 system. The binding was tested and analyzed using Biacore T200 instrument.

MEK1 full length = MEK1 full length (Homo sapiens, UniProt Q02750); experiment: SPR; type: binding; details: CM5 chip, Biacore T200, read-out: equilibrium dissociation constant (KD)
Description: as §3, §4

MEK2 full length = MEK2 full length (Homo sapiens, UniProt P36507); experiment: SPR; type: binding; details: CM5 chip, Biacore T200, read-out: equilibrium dissociation constant (KD)
Description: as §3, §4

EGFR(T790M,L858R)(h) = biological target: T4, EGFR(T790M,L858R)(h) (Homo sapiens, UniProt P00533, L858R/T790M); experiment: KinaseProfiler enzyme profiling; type: biochemical
T4 construct: purchased Eurofins KinaseProfiler
Description: (§5) Enzyme profiling services were provided by KinaseProfiler™ (Eurofin, Brussels, Belgium). The concentration of erianin was 100 nM, and total 70 kinases were tested in this in vitro screening and profiling services (2 repetitions). For more details, refer to the manufacturer’s instructions (www.eurofinsdiscoveryservices.com).

FAK(h) = biological target: T5, FAK(h) (Homo sapiens, UniProt Q05397); experiment: KinaseProfiler enzyme profiling; type: biochemical
T5 construct: purchased Eurofins KinaseProfiler
Description: as §5

SAPK4(h) = biological target: T6, SAPK4(h) (Homo sapiens, UniProt O15264); experiment: KinaseProfiler enzyme profiling; type: biochemical
T6 construct: purchased Eurofins KinaseProfiler
T6 sequence (O15264 whole entry): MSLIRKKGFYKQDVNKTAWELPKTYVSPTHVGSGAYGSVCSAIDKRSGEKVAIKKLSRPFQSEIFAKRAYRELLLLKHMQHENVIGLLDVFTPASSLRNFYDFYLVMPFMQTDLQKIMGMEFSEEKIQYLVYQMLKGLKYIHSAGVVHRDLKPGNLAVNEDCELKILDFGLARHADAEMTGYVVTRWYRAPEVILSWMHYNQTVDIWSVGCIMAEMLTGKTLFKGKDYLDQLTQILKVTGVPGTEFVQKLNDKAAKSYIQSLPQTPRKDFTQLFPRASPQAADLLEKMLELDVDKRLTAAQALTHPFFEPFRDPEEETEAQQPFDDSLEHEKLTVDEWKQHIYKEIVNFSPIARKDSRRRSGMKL
Description: as §5

SAPK3(h) = biological target: T7, SAPK3(h) (Homo sapiens, UniProt P53778); experiment: KinaseProfiler enzyme profiling; type: biochemical
T7 construct: purchased Eurofins KinaseProfiler
Description: as §5

B-Raf(h) = biological target: T8, B-Raf(h) (Homo sapiens, UniProt P15056); experiment: KinaseProfiler enzyme profiling; type: biochemical
T8 construct: purchased Eurofins KinaseProfiler
T8 sequence (P15056 whole entry): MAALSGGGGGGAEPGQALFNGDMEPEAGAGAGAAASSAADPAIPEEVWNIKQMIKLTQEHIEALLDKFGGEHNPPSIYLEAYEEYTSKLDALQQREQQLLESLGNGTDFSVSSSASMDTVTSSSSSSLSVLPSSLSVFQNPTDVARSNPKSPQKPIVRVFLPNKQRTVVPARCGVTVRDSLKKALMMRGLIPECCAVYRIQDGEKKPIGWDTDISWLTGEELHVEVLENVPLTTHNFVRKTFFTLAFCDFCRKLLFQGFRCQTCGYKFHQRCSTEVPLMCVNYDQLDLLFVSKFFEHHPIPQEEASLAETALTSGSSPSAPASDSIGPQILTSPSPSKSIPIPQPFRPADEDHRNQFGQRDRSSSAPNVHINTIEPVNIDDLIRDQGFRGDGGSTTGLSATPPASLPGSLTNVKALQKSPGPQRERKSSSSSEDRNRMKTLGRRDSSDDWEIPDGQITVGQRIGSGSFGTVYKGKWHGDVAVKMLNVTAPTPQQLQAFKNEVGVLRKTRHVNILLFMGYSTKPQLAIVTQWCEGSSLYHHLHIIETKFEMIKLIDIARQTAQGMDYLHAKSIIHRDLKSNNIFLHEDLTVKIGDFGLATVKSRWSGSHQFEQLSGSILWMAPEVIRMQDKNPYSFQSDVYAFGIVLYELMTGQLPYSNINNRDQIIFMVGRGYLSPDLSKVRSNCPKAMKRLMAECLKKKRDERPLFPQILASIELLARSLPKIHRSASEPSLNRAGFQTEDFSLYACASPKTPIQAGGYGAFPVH
Description: as §5

ATM(h) = biological target: T9, ATM(h) (Homo sapiens, UniProt Q13315); experiment: KinaseProfiler enzyme profiling; type: biochemical
T9 construct: purchased Eurofins KinaseProfiler
Description: as §5

CaMKIV(h) = biological target: T10, CaMKIV(h) (Homo sapiens, UniProt Q16566); experiment: KinaseProfiler enzyme profiling; type: biochemical
T10 construct: purchased Eurofins KinaseProfiler
Description: as §5

JNK1α1(h) = biological target: T11, JNK1α1(h) (Homo sapiens, UniProt P45983); experiment: KinaseProfiler enzyme profiling; type: biochemical
T11 construct: purchased Eurofins KinaseProfiler
Description: as §5

ROCK-I(h) = biological target: T12, ROCK-I(h) (Homo sapiens, UniProt Q13464); experiment: KinaseProfiler enzyme profiling; type: biochemical
T12 construct: purchased Eurofins KinaseProfiler
T12 sequence (Q13464 whole entry): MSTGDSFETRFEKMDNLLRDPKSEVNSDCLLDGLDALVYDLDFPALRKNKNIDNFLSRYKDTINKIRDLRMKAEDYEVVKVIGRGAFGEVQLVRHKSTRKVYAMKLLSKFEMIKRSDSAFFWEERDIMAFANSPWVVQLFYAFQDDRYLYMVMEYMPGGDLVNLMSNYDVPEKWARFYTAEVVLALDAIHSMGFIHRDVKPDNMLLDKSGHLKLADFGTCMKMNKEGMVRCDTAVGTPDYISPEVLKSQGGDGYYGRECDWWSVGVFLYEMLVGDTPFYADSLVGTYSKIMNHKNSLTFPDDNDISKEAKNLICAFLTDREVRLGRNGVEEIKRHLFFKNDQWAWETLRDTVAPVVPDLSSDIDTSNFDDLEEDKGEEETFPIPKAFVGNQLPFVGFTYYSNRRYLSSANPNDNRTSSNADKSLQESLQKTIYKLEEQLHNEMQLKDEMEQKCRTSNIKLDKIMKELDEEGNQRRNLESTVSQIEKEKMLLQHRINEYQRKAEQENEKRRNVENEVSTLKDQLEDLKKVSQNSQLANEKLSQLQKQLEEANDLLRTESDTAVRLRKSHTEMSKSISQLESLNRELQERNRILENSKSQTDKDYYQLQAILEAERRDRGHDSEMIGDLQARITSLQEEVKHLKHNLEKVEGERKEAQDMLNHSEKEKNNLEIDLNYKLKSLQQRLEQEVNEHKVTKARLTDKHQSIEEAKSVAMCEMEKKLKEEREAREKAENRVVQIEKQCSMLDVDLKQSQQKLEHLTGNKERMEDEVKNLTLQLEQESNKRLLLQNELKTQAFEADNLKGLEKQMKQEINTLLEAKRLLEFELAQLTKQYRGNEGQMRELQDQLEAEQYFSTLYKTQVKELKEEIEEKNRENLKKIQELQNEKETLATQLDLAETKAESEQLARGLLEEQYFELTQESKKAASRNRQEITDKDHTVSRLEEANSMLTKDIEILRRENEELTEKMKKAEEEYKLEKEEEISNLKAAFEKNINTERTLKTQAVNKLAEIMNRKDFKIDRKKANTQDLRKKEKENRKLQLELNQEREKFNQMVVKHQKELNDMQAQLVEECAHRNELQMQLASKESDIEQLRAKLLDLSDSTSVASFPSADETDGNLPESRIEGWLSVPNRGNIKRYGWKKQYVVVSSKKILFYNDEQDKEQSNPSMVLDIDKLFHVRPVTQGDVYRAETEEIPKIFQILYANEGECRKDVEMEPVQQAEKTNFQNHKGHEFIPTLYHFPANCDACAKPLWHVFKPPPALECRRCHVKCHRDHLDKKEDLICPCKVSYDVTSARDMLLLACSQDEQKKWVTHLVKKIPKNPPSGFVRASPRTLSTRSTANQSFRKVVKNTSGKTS
Description: as §5

PDGFRα(h) = biological target: T13, PDGFRα(h) (Homo sapiens, UniProt P16234); experiment: KinaseProfiler enzyme profiling; type: biochemical
T13 construct: purchased Eurofins KinaseProfiler
Description: as §5

GSK3β(h) = biological target: T14, GSK3β(h) (Homo sapiens, UniProt P49841); experiment: KinaseProfiler enzyme profiling; type: biochemical
T14 construct: purchased Eurofins KinaseProfiler
Description: as §5

JNK2α2(h) = biological target: T15, JNK2α2(h) (Homo sapiens, UniProt P45984); experiment: KinaseProfiler enzyme profiling; type: biochemical
T15 construct: purchased Eurofins KinaseProfiler
Description: as §5

c-RAF(h) = biological target: T16, c-RAF(h) (Homo sapiens, UniProt P04049); experiment: KinaseProfiler enzyme profiling; type: biochemical
T16 construct: purchased Eurofins KinaseProfiler
Description: as §5

Pim-1(h) = biological target: T17, Pim-1(h) (Homo sapiens, UniProt P11309); experiment: KinaseProfiler enzyme profiling; type: biochemical
T17 construct: purchased Eurofins KinaseProfiler
T17 sequence (P11309 whole entry): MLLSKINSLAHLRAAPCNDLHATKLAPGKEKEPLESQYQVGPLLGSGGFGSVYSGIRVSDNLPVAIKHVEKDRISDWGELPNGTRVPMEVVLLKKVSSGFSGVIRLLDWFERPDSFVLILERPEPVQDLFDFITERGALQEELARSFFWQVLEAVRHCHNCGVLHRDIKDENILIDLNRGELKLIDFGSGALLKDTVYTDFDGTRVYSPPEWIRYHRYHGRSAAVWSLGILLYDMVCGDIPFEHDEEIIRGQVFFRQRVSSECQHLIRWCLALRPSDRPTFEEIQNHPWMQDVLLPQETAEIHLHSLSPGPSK
Description: as §5

AMPKα1(h) = biological target: T18, AMPKα1(h) (Homo sapiens, UniProt Q13131); experiment: KinaseProfiler enzyme profiling; type: biochemical
T18 construct: purchased Eurofins KinaseProfiler
Description: as §5

NEK2(h) = biological target: T19, NEK2(h) (Homo sapiens, UniProt P51955); experiment: KinaseProfiler enzyme profiling; type: biochemical
T19 construct: purchased Eurofins KinaseProfiler
Description: as §5

CDK1/cyclinB(h) = biological target: T20, CDK1/cyclinB(h) (Homo sapiens, UniProt P06493); experiment: KinaseProfiler enzyme profiling; type: biochemical
T20 construct: purchased Eurofins KinaseProfiler
T20 sequence (P06493 whole entry): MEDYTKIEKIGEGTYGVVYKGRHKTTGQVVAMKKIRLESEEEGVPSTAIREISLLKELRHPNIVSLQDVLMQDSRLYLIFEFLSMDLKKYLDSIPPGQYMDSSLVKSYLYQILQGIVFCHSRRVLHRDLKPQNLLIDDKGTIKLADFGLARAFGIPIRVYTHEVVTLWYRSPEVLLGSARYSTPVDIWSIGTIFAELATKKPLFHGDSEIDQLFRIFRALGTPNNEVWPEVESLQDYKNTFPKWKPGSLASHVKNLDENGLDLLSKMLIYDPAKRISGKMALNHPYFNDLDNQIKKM
T20 sequence (P14635 whole entry partner): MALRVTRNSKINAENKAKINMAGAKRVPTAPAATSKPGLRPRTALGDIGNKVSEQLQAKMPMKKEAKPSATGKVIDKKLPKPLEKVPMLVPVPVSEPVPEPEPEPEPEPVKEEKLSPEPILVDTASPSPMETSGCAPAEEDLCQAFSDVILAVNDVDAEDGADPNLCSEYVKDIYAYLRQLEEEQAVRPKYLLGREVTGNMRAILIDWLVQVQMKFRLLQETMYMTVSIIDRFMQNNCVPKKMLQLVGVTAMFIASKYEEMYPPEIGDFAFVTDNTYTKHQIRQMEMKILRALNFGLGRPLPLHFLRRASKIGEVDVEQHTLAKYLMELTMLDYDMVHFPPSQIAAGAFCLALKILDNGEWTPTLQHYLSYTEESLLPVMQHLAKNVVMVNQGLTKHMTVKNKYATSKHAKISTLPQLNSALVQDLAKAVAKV
Description: as §5

PDK1(h) = biological target: T21, PDK1(h) (Homo sapiens, UniProt O15530); experiment: KinaseProfiler enzyme profiling; type: biochemical
T21 construct: purchased Eurofins KinaseProfiler
T21 sequence (O15530 whole entry): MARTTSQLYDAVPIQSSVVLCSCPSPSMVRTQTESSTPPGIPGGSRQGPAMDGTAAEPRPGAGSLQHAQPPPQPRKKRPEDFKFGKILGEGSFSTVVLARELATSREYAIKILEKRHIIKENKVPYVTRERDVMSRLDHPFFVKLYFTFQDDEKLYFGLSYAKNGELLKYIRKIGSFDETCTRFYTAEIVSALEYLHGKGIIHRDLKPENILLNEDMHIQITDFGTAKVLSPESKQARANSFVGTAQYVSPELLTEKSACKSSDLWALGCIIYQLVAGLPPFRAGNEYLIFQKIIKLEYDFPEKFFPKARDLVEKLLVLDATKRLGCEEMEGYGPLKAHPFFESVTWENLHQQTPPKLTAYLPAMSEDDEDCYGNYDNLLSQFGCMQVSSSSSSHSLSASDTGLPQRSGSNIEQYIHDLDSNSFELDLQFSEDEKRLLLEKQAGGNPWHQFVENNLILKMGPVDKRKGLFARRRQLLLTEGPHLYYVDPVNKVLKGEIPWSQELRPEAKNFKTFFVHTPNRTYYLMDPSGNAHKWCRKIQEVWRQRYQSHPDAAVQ
Description: as §5

cSRC(h) = biological target: T22, cSRC(h) (Homo sapiens, UniProt P12931); experiment: KinaseProfiler enzyme profiling; type: biochemical
T22 construct: purchased Eurofins KinaseProfiler
Description: as §5

p70S6K(h) = biological target: T23, p70S6K(h) (Homo sapiens, UniProt P23443); experiment: KinaseProfiler enzyme profiling; type: biochemical
T23 construct: purchased Eurofins KinaseProfiler
T23 sequence (P23443 whole entry): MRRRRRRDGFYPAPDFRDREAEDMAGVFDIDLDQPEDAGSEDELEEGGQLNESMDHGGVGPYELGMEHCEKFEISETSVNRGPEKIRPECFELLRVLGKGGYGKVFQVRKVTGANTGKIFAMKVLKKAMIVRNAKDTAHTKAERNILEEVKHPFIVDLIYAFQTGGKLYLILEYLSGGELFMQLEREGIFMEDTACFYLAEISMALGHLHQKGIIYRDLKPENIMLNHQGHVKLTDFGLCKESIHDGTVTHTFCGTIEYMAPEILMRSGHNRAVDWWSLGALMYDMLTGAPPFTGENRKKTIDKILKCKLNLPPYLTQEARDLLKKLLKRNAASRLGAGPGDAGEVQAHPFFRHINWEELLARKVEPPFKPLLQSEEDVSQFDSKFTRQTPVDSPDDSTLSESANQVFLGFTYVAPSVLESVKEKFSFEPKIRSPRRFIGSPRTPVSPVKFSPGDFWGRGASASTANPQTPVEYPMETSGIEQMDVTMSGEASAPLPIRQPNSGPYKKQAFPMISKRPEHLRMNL
Description: as §5

PKA(h) = biological target: T24, PKA(h) (Homo sapiens, UniProt P17612); experiment: KinaseProfiler enzyme profiling; type: biochemical
T24 construct: purchased Eurofins KinaseProfiler
Description: as §5

MSK2(h) = biological target: T25, MSK2(h) (Homo sapiens, UniProt O75676); experiment: KinaseProfiler enzyme profiling; type: biochemical
T25 construct: purchased Eurofins KinaseProfiler
Description: as §5

SMILES: COc1ccc(CCc2cc(OC)c(OC)c(OC)c2)cc1O [Erianin]
BRAF WT kinase activity (BRAF WT (381-end)): could not suppress | BRAF V600E kinase activity (BRAF V600E (416-end)): could not suppress | binding in pull-down (MEK1/2): directly bound | toxicity in body weight [1]: low toxicity | tumor growth [1]: restrained tumor growth significantly | Kd (CRAF (306-end)): 89.6 µM and 89.7 µM | Kd (MEK1 full length): 68.5 µM | Kd (MEK2 full length): 115 µM | activity at 0.1 µM (EGFR(T790M,L858R)(h)): 120% | activity at 0.1 µM (FAK(h)): 89% | activity at 0.1 µM (SAPK4(h)): 103% | activity at 0.1 µM (SAPK3(h)): 112% | activity at 0.1 µM (B-Raf(h)): 103% | activity at 0.1 µM (ATM(h)): 111% | activity at 0.1 µM (CaMKIV(h)): 91% | activity at 0.1 µM (JNK1α1(h)): 101% | activity at 0.1 µM (ROCK-I(h)): 125% | activity at 0.1 µM (PDGFRα(h)): 91% | activity at 0.1 µM (GSK3β(h)): 99% | activity at 0.1 µM (JNK2α2(h)): 91% | activity at 0.1 µM (c-RAF(h)): 85% | activity at 0.1 µM (Pim-1(h)): 98% | activity at 0.1 µM (AMPKα1(h)): 108%

activity at 10 µM (NEK2(h)): 90% | activity at 10 µM (FAK(h); 10 µM): 76% | activity at 10 µM (SAPK4(h); 10 µM): 106% | activity at 10 µM (CDK1/cyclinB(h)): 63% | activity at 10 µM (SAPK3(h); 10 µM): 122% | activity at 10 µM (PDK1(h)): 69% | activity at 10 µM (cSRC(h)): 59% | activity at 10 µM (ATM(h); 10 µM): 71% | activity at 10 µM (p70S6K(h)): 53% | activity at 10 µM (JNK1α1(h); 10 µM): 107% | activity at 10 µM (ROCK-I(h); 10 µM): 86% | activity at 10 µM (PDGFRα(h); 10 µM): 71% | activity at 10 µM (JNK2α2(h); 10 µM): 115% | activity at 10 µM (PKA(h)): 108% | activity at 10 µM (MSK2(h)): 69% | activity at 10 µM (AMPKα1(h); 10 µM): 75%
SMILES: C=C1C(=O)[C@]23[C@H](O)[C@H]1CC[C@H]2[C@@]12CO[C@]3(O)[C@@H](O)[C@@H]1C(C)(C)CC[C@@H]2O [Oridonin]

activity at 10 µM (EGFR(T790M,L858R)(h); 10 µM): 101% | activity at 10 µM (NEK2(h)): 105% | activity at 10 µM (CDK1/cyclinB(h)): 97% | activity at 10 µM (PDK1(h)): 107% | activity at 10 µM (B-Raf(h); 10 µM): 104% | activity at 10 µM (cSRC(h)): 133% | activity at 10 µM (p70S6K(h)): 95% | activity at 10 µM (CaMKIV(h); 10 µM): 93% | activity at 10 µM (GSK3β(h); 10 µM): 115% | activity at 10 µM (c-RAF(h); 10 µM): 104% | activity at 10 µM (Pim-1(h); 10 µM): 112% | activity at 10 µM (PKA(h)): 100% | activity at 10 µM (MSK2(h)): 108%
SMILES: COc1cc2oc(-c3ccc(O)c(O)c3)cc(=O)c2c(O)c1OC [Cirsiliol]
